Results from patent US20240336617A1, “Substituted Bimane Compounds and Methods of Use Thereof” (THE TRUSTEES OF THE UNIVERSITY OF PENNSYLVANIA, priority 2023, published 2024).

What was measured:
[1] = biological target: T1, αS fibrils in HEK cell lysate (Homo sapiens, UniProt P37840); test: Selectivity of probes binding with αS fibrils in HEK cell lysate; conditions: 10 mg/mL total protein; probe 1 μM
T1 construct: intein-His6 (C, cleaved yes); made in house; host or cells: Escherichia coli BL21
Description: HEK 293T cells were grown on 150 mm dishes in sterile-filtered Dulbecco's modified Eagle's medium (Gibco, Thermo Fisher) supplemented with 10% fetal bovine serum (FBS), 1% penicillin/streptomycin (Mediatech, 10 mg/ml each). Cells were then washed with PBS and harvested in 5 mL PBS by scraping. Cells were pelleted by centrifugation at 1000 rpm for 5 min, and the supernatant was removed. The resulting cell pellet was re-suspended in 300-500 μL PBS buffer with 0.1% Triton X-100 (Bio-Rad) and 1×HALT protease inhibitor cocktail without EDTA (Thermo Fisher), then lysed by sonication for two 30 s cycles (cycle 1: 2 s on 2 s off, amp 50; cycle 2: 2 s on 2 s off, amp 55) using a QSonica Q700 sonicator fitted with a microtip. […]
Probes in PBS buffer (1 μM, the stock solution prepared as 10 mM in DMSO) were incubated with different αS fibril concentrations (0, 5, 10, 25 and 50 μM) in the presence of 10 mg/mL HEK cell lysate in Greiner 96 well flat black ½ area plates at 37° C. with shaking at 500 rpm for 15 min in an IKA MS3 control orbital shaker. After 15 min incubation, fluorescence intensity measurements were obtained with a Tecan Spark plate reader (Mannedorf, Switzerland) by excitation with λex/λem=424/570 nm for 7k, λex/λem=463/580 nm for 7l, λex/λem=484/620 nm for 7m, using the following parameters: excitation and emission bandwidth 5 nm, delay time 0 μs, integration time 40 μs. […]

[2] = Viscosity measurements (glycerol mixtures); format: physicochemical
Description: As a representative example, the viscosity of 7k (25 μM, 10 mM stock in DMSO) in glycerol/methanol mixtures were measured, varying the glycerol percentage 0-99%.
Viscosity measurements. As a representative example, we have measured the viscosity of 5k (25 μM, 10 mM stock in DMSO) in glycerol/ethylene glycol (G/EG) mixtures, varying the glycerol percentage 0-90%. Then, the emission spectra were recorded using a PTI QuantaMaster™ 40 fluorescence spectrometer by excitation with 385 nm wavelength.

[3] = Fluorescent quantum yield (QY) measurements; format: physicochemical; conditions: absence of αS PFFs (−); 100 μM dye
[4] = biological target: T2, amplified αS fibrils (AFs) from PDD patient brain extracts (Homo sapiens, UniProt P37840); test: Fluorescence measurements with PDD patient cases (lysate, AFs, PFFs); format: binding; conditions: lysate or AFs and probe 1 μM
T2 construct: made in house; host or cells: recombinant αS monomer, seeded with sarkosyl-insoluble extract of human frontal cortex (AD or PDD)
Description: All procedures were performed in accordance with local institutional review board guidelines. Written informed consent for autopsy and analysis of tissue sample data was obtained either from patients themselves or their next of kin. Frozen postmortem human frontal cortex brain tissues from three patients diagnosed with Alzheimer's disease (AD) and three patients diagnosed with Parkinson's disease with dementia (PDD) were selected for sequential extraction of αS aggregates based on a high burden of αS pathology determined by immunohistochemical staining. In brief, 5-10 g of frontal cortical gray matter were homogenized in five volumes (W/V) of high-salt (HS) buffer (50 mM Tris-HCl pH 7.4, 750 mM NaCl, 10 mM NaF, 5 mM EDTA) with protease and protein phosphatase inhibitors, incubated on ice for 20 min and centrifuged at 100,000×g for 30 min. The pellets were then re-extracted with HS buffer, followed by sequential extractions with five volumes of 1% Triton X-100-containing HS buffer and 1% Triton X-100-containing HS buffer with 30% sucrose. The pellets were then re-suspended and homogenized in 1% sarkosyl-containing HS buffer, rotated at room temperature for 2 h or at 4° C. overnight and centrifuged at 100,000×g for 30 min. […] These final sarkosyl-insoluble fractions are referred to as “brain extracts.: The amount of αS in the brain extracts was determined by sandwich ELISA using Syn9027, a mono-clonal antibody (Mab) to αS, and the protein concentrations were examined by bicinchoninic acid (BCA) assay. […]
Brain-derived αS aggregates in extract samples from three AD and three PDD cases (FIG. 38A) were used as seeds for templated aggregation of recombinant αS monomer. […] After seven days of incubation, amplification progress was determined by removing an aliquot and diluting tenfold in DPBS to a final αS concentration of 3.5 μM. […] Equal volumes of supernatant and pellet fractions were analyzed on SDS-PAGE gels and Western blot, with amplified aggregates migrating to the pellet fraction (FIG. 38B). […]

detection of PFFs in cytosolic HEK cell lysate [1] | increase in fluorescence intensity with % glycerol ([2]; glycerol/MeOH mixtures) | red-shift with % glycerol ([2]; glycerol/MeOH mixtures) | Fluorescence QY [3] | increase in fluorescence intensity with increased % glycerol ([2]; ethylene glycol/glycerol mixtures) | SMILES | fluorescence detection of PDD amplified fibrils (AFs) [4]
higher fluorescence turn on | > 6 fold | 12 nm |  |  | Cc1c(C)n2c(/C=C/c3ccc(N4CCOCC4)cc3)c(C)c(=O)n2c1=O [Compound 7k, (E)-2,3,6-trimethyl-5-(4-morpholinostyryl)-1H,7H-pyrazolo[1,2-a]pyrazole-1,7-dione] | 
 |  |  | 0.17% |  | Cc1c(C)n2c(/C=C/c3ccc(N)cc3)c(C)c(=O)n2c1=O [Compound 7j, (E)-3-(4-aminostyryl)-2,5,6-trimethyl-1H,7H-pyrazolo[1,2-a]pyrazole-1,7-dione] | 
higher fluorescence turn on |  |  | 0.15% | 3.7 fold | Cc1c(C)n2c(/C=C/c3ccc(N(C)C)cc3)c(C)c(=O)n2c1=O [Compound 7l, (E)-3-(4-(dimethylamino)styryl)-2,5,6-trimethyl-1H,7H-pyrazolo[1,2-a]pyrazole-1,7-dione] | higher sensitivity to PDD derived AFs
 |  |  |  |  | Cc1c(C)n2c(/C=C/C=C/c3ccc(N(C)C)cc3)c(C)c(=O)n2c1=O [Compound 7m, 3-((1E,3E)-4-(4-(dimethylamino)phenyl)buta-1,3-dien-1-yl)-2,5,6-trimethyl-1H,7H-pyrazolo[1,2-a]pyrazole-1,7-dione] | selective increase in fluorescence for PDD AFs compared to AD AFs
